Assay [1] has as its system Human alphaherpesvirus 2. Kind of assay: Antiviral activity against Herpes simplex virus 2 assessed as inhibition of virus-induced cytopathic effect after 72 hrs by two-fold dilution method. Conditions: Human alphaherpesvirus 2, 72 h. It is filed as functional.
In assay [2] the test system is rhinovirus B14. Kind of assay: Antiviral activity against Human rhinovirus 14 assessed as inhibition of virus-induced cytopathic effect at 37 degC after 72 hrs by two-fold dilution method. It is filed as functional. The conditions noted are these: Rhinovirus B. Background: Damage to the host cells serves as the signal in cytopathic effect assays.
The nature of assay [3]: Antiviral activity against Human rhinovirus 17 assessed as inhibition of virus-induced cytopathic effect at 37 degC after 72 hrs by two-fold dilution method. It is filed as functional, Human rhinovirus B17. Conditions: Rhinovirus B.
Assay [4] has as its system unidentified influenza virus. Kind of assay: Antiviral activity against Parainfluenza virus assessed as inhibition of virus-induced cytopathic effect at 37 degC after 72 hrs by two-fold dilution method. It is filed as functional.
The test system of assay [5] is Respiratory syncytial virus. The assay is described as follows: Antiviral activity against Respiratory syncytial virus assessed as inhibition of virus-induced cytopathic effect at 37 degC after 72 hrs by two-fold dilution method. It counts as functional. The conditions noted are these: human respiratory syncytial virus.
Assay [6] concerns Human alphaherpesvirus 1. Kind of assay: Antiviral activity against Herpes simplex virus 1 assessed as inhibition of virus-induced cytopathic effect at 37 degC after 72 hrs by two-fold dilution method. The conditions noted are these: Human alphaherpesvirus 1, 72 h. It is filed as functional.
Assay [7] relates to Human alphaherpesvirus 1. Kind of assay: Antiviral activity against Herpes simplex virus 1 Sheely assessed as inhibition of virus-induced cytopathic effect at 37 degC after 72 hrs by two-fold dilution method. It is filed as functional. Conditions: Human alphaherpesvirus 1, Sheely.
The test system of assay [8] is Human alphaherpesvirus 2. Kind of assay: Antiviral activity against Herpes simplex virus 2 Curtis assessed as inhibition of virus-induced cytopathic effect at 37 degC after 72 hrs by two-fold dilution method. It counts as functional. Conditions: Human alphaherpesvirus 2, Curtis.
The subject of assay [9] is rhinovirus A2. The assay is described as follows: Antiviral activity against Human rhinovirus 2 assessed as inhibition of virus-induced cytopathic effect at 37 degC after 72 hrs by two-fold dilution method. It is filed as functional. Conditions: Rhinovirus A.
In assay [10] the test system is Influenza A virus. The assay is described as follows: Antiviral activity against Influenza A2 virus Jap 170 infected in ferret trachea assessed as reduction in viral yield at 200 ug/ml after 3 days followed by compound-washout measured after 24 hrs by chick embryo-based hemagglutination titration method relative to control v. It counts as functional. Further details: scale not given: the % may be the effect or the level left.

In assay [11] the test system is Influenza A virus. Kind of assay: Antiviral activity against Influenza A2 virus Jap 170 infected in ferret trachea assessed as reduction in viral yield at 400 ug/ml after 3 days followed by compound-washout measured after 24 hrs by chick embryo-based hemagglutination titration method relative to control. Also noted: scale not given: the % may be the effect or the level left. It counts as functional.

Assay [12] deals with Equine rhinovirus. Kind of assay: Antiviral activity against Equine rhinovirus assessed as inhibition of virus-induced cytopathic effect after 48 hrs by two-fold dilution method.
For assay [13], the system named is Equine rhinovirus. Kind of assay: Antiviral activity against Equine rhinovirus infected in rhesus monkey trachea assessed as reduction in viral yield at 200 ug/ml after 3 days followed by compound-washout measured after 24 hrs by human CATR cell-based titration method relative to control. Also noted: scale not given: the % may be the effect or the level left.
For assay [14], the system named is Equine rhinovirus. Kind of assay: Antiviral activity against Equine rhinovirus infected in rhesus monkey trachea assessed as reduction in viral yield at 400 ug/ml after 3 days followed by compound-washout measured after 24 hrs by human CATR cell-based titration method relative to control. Also noted: scale not given: the % may be the effect or the level left.
The subject of assay [15] is Equine rhinovirus. The assay is described as follows: Antiviral activity against Equine rhinovirus infected in rhesus monkey trachea assessed as reduction in viral yield at 100 ug/ml after 3 days followed by compound-washout measured after 24 hrs by human CATR cell-based titration method relative to control v. Further details: scale not given: the % may be the effect or the level left.

Assay [16] concerns Human alphaherpesvirus 2. Kind of assay: Antiviral activity against Herpes simplex virus 2 assessed as inhibition of virus-induced cytopathic effect at 50 ug/ml after 72 hrs by two-fold dilution method. It is filed as functional, organism-based.

The structures appear in SMILES notation. Converted amounts (≈) assume the structure as drawn. The source made the active and inactive calls. The rule behind the calls is not given here.

For `CCC(=O)C(CCCCCCOc1ccc(OC)cc1Cl)C(=O)CC` [ARILDONE], the MIC in assay [1] turned out to be 6 µg/mL (≈ 16.3 µM); in assay [2], 1.5 µg/mL (≈ 4.07 µM); in [3] it was 3 µg/mL (≈ 8.13 µM); in assay [4], 1.5 µg/mL (≈ 4.07 µM); in [5], 3 µg/mL (≈ 8.13 µM); in assay [6], 6 µg/mL (≈ 16.3 µM). Also, the MIC is 6 µg/mL (≈ 16.3 µM) in assay [7], 6 µg/mL (≈ 16.3 µM) in assay [8], 0.7 µg/mL (≈ 1.9 µM) in assay [9] and 1.5 µg/mL (≈ 4.07 µM) in assay [12]. In addition, the Activity in [10] stood at 90%; in [11] it was 99.9%; in [13], 98%; in assay [14] it was 99.5%; in [15], 70%.

Take `O=c1[nH]c(=O)n([C@H]2C[C@H](O)[C@@H](CO)O2)cc1I` [IDOXURIDINE]: the MIC in assay [7] and in assay [8] was 6 µg/mL (≈ 16.9 µM) each time.

In the case of `Nc1ccn([C@@H]2O[C@H](CO)[C@@H](O)[C@@H]2O)c(=O)n1` [CYTARABINE], the MIC in assay [7] and in assay [8] was less than 3 µg/mL in each case.

For the molecule `CCC(=O)C(CCCCCCOc1ccc(OC(C)=O)cc1Cl)C(=O)CC`, in [16], the inhibition entry was “inactive”. For the same molecule, the MIC in assay [12] came to 12 µg/mL (≈ 30.2 µM).

On to `CCC(=O)C(CCCCOc1ccc2c(c1)OCO2)C(=O)CC`, for which the inhibition result in assay [16] was “inactive”. The MIC in [12] was 12 µg/mL (≈ 37.5 µM).

As for `CCC(=O)C(CCCCCCOc1cccc([N+](=O)[O-])c1)C(=O)CC`, the inhibition entry in assay [16] is “inactive”. In addition, in assay [12], the MIC is 3 µg/mL (≈ 8.59 µM).

Consider `Nc1ncnc2c1ncn2[C@@H]1O[C@H](CO)[C@@H](O)[C@@H]1O` [VIDARABINE], for which the MIC in assay [7] and in assay [8] was 12 µg/mL (≈ 44.9 µM) each time.

Values taken from ChEMBL document CHEMBL3244039, “Antiviral activity of some beta-diketones. 2. Aryloxy alkyl diketones. In vitro activity against both RNA and DNA viruses” (1977).
